System: soybean leaf discs (ROS burst)
Assay: Luminol-based ROS burst assay in soybean leaf discs
Format: cell-based, soybean (Glycine max)
Details: 50 mg/L, leaf discs of soybean Williams, dH2O negative control
Method: To measure the oxidation burst, leaf discs (Ø 0.5 cm) collected from 2-week-old soybean (cultivar Williams) were floated overnight in 200 μL sterile H2O in a 96-well plate. The H2O was replaced with 200 μL reaction buffer containing luminol/peroxidase ([…] luminol, 10 mg/mL peroxidase) and chitooligosaccharides treatments (50 mg/L). flg22 was used as a positive control. The luminescence was measured using a GLOMAX96 microplate luminometer (Promega, Madison, WI, USA). The experiments for MAPK activation were carried out as described previously ([[…] et al., 2014]). The MAPK activation was determined by immunoblots with anti-phospho-p44/42 MAPK antibody (#4370; Cell Signaling, Boston, MA, USA).

CC(=O)N[C@@H]1[C@@H](O)[C@H](O[C@@H]2O[C@H](CO)[C@@H](O[C@@H]3O[C@H](CO)[C@@H](O[C@@H]4O[C@H](CO)[C@@H](O[C@@H]5O[C@H](CO)[C@@H](O)[C@H](O)[C@H]5NC(C)=O)[C@H](O)[C@H]4NC(C)=O)[C@H](O)[C@H]3NC(C)=O)[C@H](O)[C@H]2NC(C)=O)[C@@H](CO)O[C@H]1O [Chitin oligosaccharide (dp5), chitin oligosaccharide]
ROS burst: stronger ROS burst than that of CTOS (dp4)

— publication PMC12782889, “A GmNRF5a–GmCERK1–GmCAK1 module mediates chitin/chitosan‐triggered immune response in soybean” (Journal of Integrative Plant Biology, 2025)
